According to patent US8481555B2, “Aza-bicyclic amine N-oxide compounds as alpha-7 nicotinic acetylcholine receptor ligand pro-drugs” (Bristol-Myers Squibb Company, priority 2010, dated 2013):
Read-outs that look alike come from different tables or passages of the source.

Legend:
[1] = Conversion of Compound B to Compound A in the rat (intra-duodenal infusion, portal vein sampling); assay type: in vivo, male Sprague-Dawley rats; conditions: intra-duodenal infusion of Compound B 10 mg/kg, analyte as labelled; for AUC(0-t): 10 mg/kg; for AUC(0-t) / Cmax: fasted, PVC collection, plasma
Procedure: (§1) The following section details the liquid chromatography with tandem mass spectrometry (LC/MS/MS)-based bioanalytical methods developed to support the analysis of the in vivo biological samples (brain, plasma, urine) from studies conducted in the dog and rat.
(§2) Sample Preparation: Blood, Plasma, Serum, Urine. Plasma and blood samples were prepared as described below. If dilutions were required, an aliquot of the sample was diluted into the respective matrix. For the analysis of urine samples, an aliquot was first diluted into blank plasma and then treated as described below.
(§3) Sample preparation was conducted manually or on a Packard MultiPROBE automated liquid handler. The internal standard (IS) solution (1000 nM (S,E)-5-bromo-N-(1′-azaspiro[oxazolidine-5,3′-bicyclo[2.2.2]octane]-2-ylidene)pyrazin-2-amine) was prepared in acetonitrile. Two hundred microliters of the IS solution was added to each well of a Strata protein precipitation filter plate (Phenomenex, Torrance, Calif.). Biological samples (60 μL) were added to the filter plate. The filter plate was attached atop a standard 96 well plate and the entire unit was centrifuged at 1100 rpm for 2 minutes. The supernatant was collected in the 96 well plate. Five microliters of each sample was injected onto the LC/MS/MS system for analysis.
(§4) Instrumentation. The UHPLC system used was an Agilent 1200 series (Agilent Technologies, Wilmington, Del.) coupled with CTC Analytics HTS PAL Auto Sampler (Leap Technologies, Carrboro, N.C.) that was equipped with a cooling stack so that samples were maintained at 10° C. during analysis. The analytical column used was a Waters Acquity HSS T3 (2.1×50 mm, 1.8 um particles) at 60° C. The mobile phase, which consisted of 0.1% formic acid in water (A) and 0.1% formic acid in acetonitrile (B), was delivered at a flow rate of 0.6 mL/min.
(§5) The UHPLC was interfaced to an API4000 QTrap LC/MS/MS System® (AppliedBiosystems/MDS Sciex, Foster City, Calif.) equipped with an electrospray ionization interface operating in the positive ionization mode. The source temperature was 500° C. Detection of each analyte was achieved through selected reaction monitoring. Ions representing the precursor (M+H)^+ species for Compound A, Compound B, and the IS were selected in quadrupole 1 and collisionally dissociated with nitrogen to generate specific product ions, which were subsequently monitored by quadrupole 3.
(§6) Standard Curve Ranges. Unless otherwise specified, the analysis of Compound A and Compound B were conducted against a standard curve ranging from 0.6 to 1,250 nM and 4.8 to 5,000 nM, respectively. The standard curve was fitted with a linear regression weighted by the square of the reciprocal concentration (1/x^2). Standards were analyzed in duplicate. Quality control samples were prepared in blank biological matrix at concentration levels within the range of the standard curve. The predicted concentrations of more than 80% of the QCs from various different matrices were within 20% of nominal values, indicating acceptable assay performance.
Conversion of N-oxide, Compound B, to Compound A in the rat. The conversion of Compound B to Compound A was evaluated in male Sprague-Dawley rats (260-280 g) Animals (N=3 per group) received Compound B as an intra-duodenal infusion (10 mg/kg over 10 minutes) via an indwelling intra-duodenal cannula (IDC) with collection via the intra-portal vein. Serial blood samples were obtained predose and at 0.17, 0.25, 0.5, 0.75, 1, 2, 4, 6, 8, and 24 hours post dose. Plasma samples, obtained by centrifugation at 4° C. (1500-2000×g), were stored at −20° C. until analysis.
All conversion studies in rats were performed in animals containing indwelling cannulas in the duodenum and portal vein. The studies were designed to isolate the role of the GI tract in the reduction of Compound B. Table IV summarizes the exposure of Compound B and Compound A in the portal vein following an intra-duodenal infusion of Compound B in the rat. […]

[2] = Conversion of Compound B to Compound A in the dog (IV infusion and oral gavage, crossover); assay type: in vivo, male beagle dogs; conditions: for AUC(0-t): analyte as labelled, read-out: AUC(0-24 h)
Procedure: as §1, §2, §3, §4, §5, §6
Conversion of N-oxide, Compound B, to Compound A in the dog. The conversion of Compound B to Compound A was evaluated in a crossover-design study in male beagle dogs. Three animals (5 to 8 kg) received Compound B by IV infusion (1 mg/kg over 5 minutes) via a cephalic vein and by oral gavage (5 mg/kg), with a 1-week washout between treatments. Serial blood samples (˜0.3 mL) were collected from a saphenous vein predose and at (0.083, 0.17 IV only), 0.25, 0.5, 0.75, 1, 2, 4, 6, 8, and 24 hours post dose, followed by centrifugation at 4° C. (1500-2000×g) to obtain plasma. Samples were stored at −20° C. until analysis by LC/MS/MS.
Table VI summarizes the PK parameters of Compound B and the appearance of Compound A following a single dose in dogs. Following either an IV or PO dose, the conversion of Compound B to Compound A was observed; however, it was more extensive after oral dosing. […]

[3] = as above; assay type: in vivo, male beagle dogs; conditions: plasma
[4] = male, Sprague-Dawley, in vivo, read-out: AUC(0-4)
[5] = male, Sprague-Dawley, in vivo, read-out: Plasma concentration in the portal vein
[6] = male, beagle, fasted, oral gavage of Compound B 5 mg/kg, plasma
[7] = male, beagle, fed, IV infusion of Compound B 1 mg/kg, plasma
[8] = fed, IV infusion of Compound B 1 mg/kg, plasma

Row | SMILES | AUC(0-t) [1, 4] | Cmax ([1]; male, Sprague-Dawley, in vivo) | concentration at 0.167 h [1, 5] | concentration at 0.25 h [1, 5] | concentration at 0.5 h [1, 5] | concentration at 0.75 h [1, 5] | concentration at 1 h [1, 5] | concentration at 2 h [1, 5] | concentration at 4 h [1, 5] | AUC(0-t) [2, 6] | AUC(0-t) [2, 7] | further results
1 | c1ccc2cc(NC3=NC[C@@]4(CN5CCC4CC5)O3)ncc2c1 [Compound A, (R)—N-(isoquinolin-3-yl)-4H-1′-azaspiro[oxazole-5,3′-bicyclo[2.2.2]octan]-2-amine] | 1.22 ± 1.1 µM·h | 860 ± 340 nM | 3 nM | 7 nM | 112 nM | 207 nM | 448 nM | 750 nM | 455 nM | 0.7 ± 0.2 µM·h | 0.03 µM·h | AUC(0-t) ([1]; male, Sprague-Dawley, in vivo, read-out: AUC(0-24 h)): 2.55 ± 1.93 µM·h; concentration at 6 h ([1]; male, Sprague-Dawley, in vivo, 6 hours, read-out: Plasma concentration in the portal vein): 434 nM; concentration at 8 h ([1]; male, Sprague-Dawley, in vivo, 8 hours, read-out: Plasma concentration in the portal vein): 125 nM; concentration at 24 h ([1]; male, Sprague-Dawley, in vivo, 24 hours, read-out: Plasma concentration in the portal vein): 6 nM; AUC of Compound A after IV Compound B as percent of the AUC of Compound A after IV administration of Compound A ([2]; IV): ~3%; AUC of Compound A after PO Compound B as percent of the oral AUC of Compound A after PO Compound A alone ([2]; PO): roughly 40%; AUC ([3]; male, beagle, PO dosing of Compound B (10 mg/kg as printed in text), read-out: plasma AUC of Compound A after PO dosing of Compound B): 0.7 µM·h; AUC ([3]; PO administration of Compound A alone, read-out: oral AUC of Compound A following PO administration of Compound A alone): 1.74 µM·h
2 | [O-][N+]12CCC(CC1)[C@]1(CN=C(Nc3cc4ccccc4cn3)O1)C2 [Compound B, (S)-2-(Isoquinolin-3-ylamino)-4H-1′-azaspiro[oxazole-5,3′-bicyclo[2.2.2]octane]1′-oxide] | 0.34 ± 0.04 µM·h | 760 ± 240 nM | 601 nM | 758 nM | 177 nM | 90 nM | 69 nM | 52 nM | 18 nM | 5.16 ± 0.68 µM·h | 3.84 ± 0.92 µM·h | Plasma concentration in the portal vein ([1]; 6 hours): < LLQ; Plasma concentration in the portal vein ([1]; 8 hours): < LLQ; Plasma concentration in the portal vein ([1]; 24 hours): < LLQ; CLTp [2, 8]: 13.7 ± 4.0 mL/min/kg; T-HALF [2, 8]: 9.4 ± 6.5 h; AUC(0-inf) [2, 6]: 5.69 ± 0.39 µM·h; Cmax [2, 6]: 850 ± 460 nM; AUC(0-inf) [2, 7]: 3.94 ± 1.01 µM·h; Vd ([2]; male, beagle, fed, IV infusion of Compound B 1 mg/kg, plasma, read-out: Vss): 2 ± 0.2 L/kg; bioavailability ([2]; male, beagle, plasma, fasted, oral gavage of Compound B 5 mg/kg): 27 ± 15%
